US8153641B2, “Compounds and methods for kinase modulation, and indications therefor” (Plexxikon Inc., priority 2008, dated 2012)

Assays:
Assay type in all cases: biochemical
Fms = Fms (Homo sapiens, UniProt P07333); assay: Kinase activity assay, Fms; settings: read-out: activity toward kinase Fms, IC50
C-Raf = C-Raf (Homo sapiens, UniProt P04049); assay: Kinase activity assay, C-Raf; settings: read-out: activity toward kinase C-Raf, IC50
B-Raf V600E = B-Raf V600E (Homo sapiens, UniProt P15056, V600E); assay: Kinase activity assay, B-Raf V600E; settings: read-out: activity toward kinase B-Raf V600E, IC50
B-Raf = B-Raf (Homo sapiens, UniProt P15056); assay: Kinase activity assay, B-Raf; settings: read-out: activity toward kinase B-Raf, IC50

Measured: IC50

Chain of Fms (P07333 20-972): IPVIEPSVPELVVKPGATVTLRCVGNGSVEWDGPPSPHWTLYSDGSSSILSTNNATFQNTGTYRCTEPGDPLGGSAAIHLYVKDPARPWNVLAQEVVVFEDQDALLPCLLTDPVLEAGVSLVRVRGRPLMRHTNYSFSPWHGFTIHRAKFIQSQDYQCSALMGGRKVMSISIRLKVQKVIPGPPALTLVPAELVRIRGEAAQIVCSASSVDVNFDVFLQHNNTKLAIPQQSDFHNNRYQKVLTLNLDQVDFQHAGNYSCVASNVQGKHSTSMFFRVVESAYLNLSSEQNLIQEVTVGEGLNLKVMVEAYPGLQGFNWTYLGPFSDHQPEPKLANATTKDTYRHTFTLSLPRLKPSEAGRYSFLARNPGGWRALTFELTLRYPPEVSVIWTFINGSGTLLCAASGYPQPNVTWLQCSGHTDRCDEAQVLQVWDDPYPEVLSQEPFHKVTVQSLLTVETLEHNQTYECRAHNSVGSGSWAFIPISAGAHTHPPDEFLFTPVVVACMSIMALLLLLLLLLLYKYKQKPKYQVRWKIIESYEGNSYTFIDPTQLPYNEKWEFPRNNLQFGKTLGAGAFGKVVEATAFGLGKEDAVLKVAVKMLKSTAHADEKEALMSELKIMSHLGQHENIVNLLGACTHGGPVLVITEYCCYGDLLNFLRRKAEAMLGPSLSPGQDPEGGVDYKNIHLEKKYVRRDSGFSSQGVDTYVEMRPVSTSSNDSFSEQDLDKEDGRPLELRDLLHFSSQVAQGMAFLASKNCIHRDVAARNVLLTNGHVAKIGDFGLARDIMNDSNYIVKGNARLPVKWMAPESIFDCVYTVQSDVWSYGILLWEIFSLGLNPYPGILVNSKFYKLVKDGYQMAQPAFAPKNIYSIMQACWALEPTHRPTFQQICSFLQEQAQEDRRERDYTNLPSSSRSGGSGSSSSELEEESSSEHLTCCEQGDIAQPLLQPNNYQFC
Chain of B-Raf V600E (P15056 whole entry V600E): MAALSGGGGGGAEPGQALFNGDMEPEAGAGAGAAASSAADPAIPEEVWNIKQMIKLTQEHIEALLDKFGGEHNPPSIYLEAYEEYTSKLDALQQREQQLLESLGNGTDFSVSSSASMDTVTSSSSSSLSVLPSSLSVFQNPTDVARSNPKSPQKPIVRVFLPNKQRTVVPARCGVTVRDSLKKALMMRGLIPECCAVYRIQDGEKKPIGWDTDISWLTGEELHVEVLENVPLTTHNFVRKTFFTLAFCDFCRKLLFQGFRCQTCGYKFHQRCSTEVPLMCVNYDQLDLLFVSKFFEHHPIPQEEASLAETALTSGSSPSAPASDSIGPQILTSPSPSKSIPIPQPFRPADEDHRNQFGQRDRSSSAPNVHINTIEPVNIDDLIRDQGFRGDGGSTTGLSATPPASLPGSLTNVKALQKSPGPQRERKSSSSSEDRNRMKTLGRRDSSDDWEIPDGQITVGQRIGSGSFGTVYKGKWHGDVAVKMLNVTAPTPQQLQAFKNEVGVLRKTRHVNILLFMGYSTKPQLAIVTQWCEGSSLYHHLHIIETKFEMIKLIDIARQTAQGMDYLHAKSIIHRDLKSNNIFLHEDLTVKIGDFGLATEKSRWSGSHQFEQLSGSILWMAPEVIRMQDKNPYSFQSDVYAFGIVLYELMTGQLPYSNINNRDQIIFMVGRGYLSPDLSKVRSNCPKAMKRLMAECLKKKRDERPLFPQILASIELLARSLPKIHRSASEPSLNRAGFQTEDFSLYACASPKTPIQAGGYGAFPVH
Chain of C-Raf (P04049 whole entry): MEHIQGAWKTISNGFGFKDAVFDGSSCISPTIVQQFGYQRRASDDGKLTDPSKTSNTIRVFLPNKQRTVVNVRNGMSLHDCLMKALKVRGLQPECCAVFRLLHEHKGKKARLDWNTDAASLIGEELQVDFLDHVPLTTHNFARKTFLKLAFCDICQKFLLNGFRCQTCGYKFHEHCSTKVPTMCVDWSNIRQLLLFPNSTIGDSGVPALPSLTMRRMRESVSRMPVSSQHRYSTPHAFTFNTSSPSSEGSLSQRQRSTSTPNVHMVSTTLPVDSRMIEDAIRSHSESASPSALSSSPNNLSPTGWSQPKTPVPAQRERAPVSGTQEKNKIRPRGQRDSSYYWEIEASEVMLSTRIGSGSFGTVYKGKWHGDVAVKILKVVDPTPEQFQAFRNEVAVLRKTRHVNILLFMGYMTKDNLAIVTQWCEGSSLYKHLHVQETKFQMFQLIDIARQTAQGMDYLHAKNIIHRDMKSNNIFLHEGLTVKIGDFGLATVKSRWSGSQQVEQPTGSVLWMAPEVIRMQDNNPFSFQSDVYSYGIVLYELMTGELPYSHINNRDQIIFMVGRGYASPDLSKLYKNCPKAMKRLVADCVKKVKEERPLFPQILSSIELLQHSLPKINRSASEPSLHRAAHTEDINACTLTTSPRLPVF
Chain of B-Raf (P15056 whole entry): as the sequence (P15056 whole entry V600E) above, with E600V counted along it

O=C(c1c(F)ccc(NS(=O)(=O)c2cccnc2)c1F)c1c[nH]c2ncncc12 [Compound P-0066, Pyridine-3-sulfonic acid [2,4-difluoro-3-(7H-pyrrolo[2,3-d]pyrimidine-5-carbonyl)-phenyl]-amide]
≤ 10 µM: all assays above
